Assay results from patent publication US8586603B2, “Aminotetraline derivatives” (priority 2009, dated 2013).
Several values for one entry are separate records, joined by “and”; a condition that tells them apart may be missing. Equal entries are not always repeated.

Assays:
[1] = system: formalin-induced hind paw licking in CD-1 mice; assay: Animal pain test (formalin assay); assay type: in vivo; settings: for % Inhibition of hind paw licking time: vs vehicle
Description: The formalin test is being widely accepted as a valid basic model of persistent clinical pain, and may indicate a compound's efficacy in neuropathic and/or inflammatory pain conditions.
Compound 1 and a comparator (gabapentin 100 mg/kg) were administered to groups of 5 or 10 CD-1 (Crl.) derived male mice weighing 24±2 g. Test substances and vehicle (0.2% HPMC/0.9% NaCl) were each administered by intraperitoneal injection (gabapentin) or oral gavage (compound 1) 15 or 30 minutes before subplantar injection of formalin (0.02 ml, 2% solution). Reduction of the formalin-induced hind paw licking time recorded at 5-minute interval during the following 0- to 35-minute after formalin injection by 50 percent or more (≧50%) indicated significant analgesic activity. Also, statistical analysis was performed by using one-way ANOVA followed by Dunnett's test to compare the test compound-treated and vehicle control groups. Significance is considered at P<0.05 level. Acute toxic symptoms and autonomic effects were observed after the administration of test compounds.

[2] = molecular target: T1, porcine cortical pα1 adrenergic receptor; assay: Receptor binding assay, [3H]prazosin competition, porcine cortical membranes; settings: means of 2-8 individual experiments each done as triplicate
T1 construct: Ki pα1; other: means of 2-8 individual experiments each done as triplicate

[3] = system: porcine cortical pα1 adrenergic receptor; assay: as above; settings: vs p5-HT1a
[4] = molecular target: porcine cortical pα2 adrenergic receptor; assay: Receptor binding assay, [3H]RX821002 competition, porcine cortical membranes; settings: means of 2-8 individual experiments each done as triplicate
[5] = Saturated solution in phosphate buffer pH 6.2; assay type: physicochemical
Description: For the permeation experiments horizontal cells with an acceptor and donor volume of approx. 23 mL of phosphate buffer pH 6.2 were used. The donor cells contained saturated solutions of compound 1 (2 mg/mL) in phosphate buffer pH 6.2. The experiments were performed at a temperature of 32° C. and the acceptor and donor media were slowly stirred. For the study pig leg skin with thickness of 300-500 μm were used. The experiments were performed in triplicate (n=3) over a period of 48 hours. During this time period six samples at different time points (after 2, 4, 6, 8, 24 and 48 hours) were taken. After each individual incubation period the concentration of the test compound in the acceptor medium was analysed by HPLC at 275 nm, 20° C., flow rate 2.0 mL/min in acetonitrile/water/TFA.

[6] = molecular target: T2, human 5-HT1a receptor (Homo sapiens, UniProt P08908); assay: [35S]GTPγS functional assay; assay type: biochemical
T2 construct: expressed in transfected cells
T2 sequence (P08908 1-422): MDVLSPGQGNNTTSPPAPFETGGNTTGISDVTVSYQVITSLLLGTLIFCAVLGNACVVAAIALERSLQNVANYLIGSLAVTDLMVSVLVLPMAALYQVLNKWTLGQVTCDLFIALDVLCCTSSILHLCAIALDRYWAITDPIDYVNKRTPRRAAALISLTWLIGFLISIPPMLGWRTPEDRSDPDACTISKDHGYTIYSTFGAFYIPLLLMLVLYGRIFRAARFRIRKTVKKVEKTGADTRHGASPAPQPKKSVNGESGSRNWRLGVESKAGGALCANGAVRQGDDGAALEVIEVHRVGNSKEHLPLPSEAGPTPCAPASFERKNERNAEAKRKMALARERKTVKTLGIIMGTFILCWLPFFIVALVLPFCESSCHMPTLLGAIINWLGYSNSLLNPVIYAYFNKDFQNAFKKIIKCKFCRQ
Description: Specific binding of [^35S]GTPγS is stimulated by activation of the stably expressed human 5-HT1a receptor in a dose-dependent way by agonists for this GPCR and is determined by measuring the radioactive label of the membrane. Non-linear regression analysis of the resulting dose-response curves yields the EC50 value in [nM] representing the half maximal concentration which is necessary to activate the receptor completely.

[7] = molecular target: T3, porcine cortical p5-HT2 serotonin receptor (Sus scrofa, UniProt P50129); assay: Receptor binding assay, [3H]ketanserin competition, porcine cortical membranes
T3 construct: membrane homogenates prepared from porcine striatal or cortical tissue; from tissue; host or cells: porcine cortex

[8] = 5 mg/kg oral, interval 0-5 minutes
[9] = 5 mg/kg oral, interval 5-10 minutes
[10] = 5 mg/kg oral, interval 10-15 minutes
[11] = 5 mg/kg oral, interval 15-20 minutes
[12] = 5 mg/kg oral, interval 20-25 minutes
[13] = 5 mg/kg oral, interval 25-30 minutes
[14] = 5 mg/kg oral, interval 30-35 minutes
[15] = 10 mg/kg oral, interval 0-5 minutes
[16] = 10 mg/kg oral, interval 5-10 minutes
[17] = 10 mg/kg oral, interval 20-25 minutes
[18] = 10 mg/kg oral, interval 25-30 minutes
[19] = 10 mg/kg oral, interval 30-35 minutes

T3 sequence (P50129 whole entry): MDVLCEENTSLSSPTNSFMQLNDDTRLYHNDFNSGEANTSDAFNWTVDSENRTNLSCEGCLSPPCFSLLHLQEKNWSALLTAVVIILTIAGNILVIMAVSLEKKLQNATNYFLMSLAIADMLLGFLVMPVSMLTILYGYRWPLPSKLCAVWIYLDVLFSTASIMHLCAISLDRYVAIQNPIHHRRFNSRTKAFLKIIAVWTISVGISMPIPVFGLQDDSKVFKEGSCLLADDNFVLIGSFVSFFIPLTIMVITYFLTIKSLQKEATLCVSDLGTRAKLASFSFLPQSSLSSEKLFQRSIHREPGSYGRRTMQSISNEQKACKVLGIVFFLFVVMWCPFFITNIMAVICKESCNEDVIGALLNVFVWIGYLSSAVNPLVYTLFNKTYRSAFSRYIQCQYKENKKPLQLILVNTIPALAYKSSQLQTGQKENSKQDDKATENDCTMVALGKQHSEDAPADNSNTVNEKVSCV

SMILES: CCCN(CCc1cccs1)C1CCc2cccc(O)c2C1 (stereo not shown) [Compound 1, N-(8-Hydroxytetralin-2-yl)-N-propyl-N-[2-(2-thienyl)ethyl]amine]
- analgesic effect ([1]; 1 mg/kg oral administration): no analgesic effect
- analgesic effect ([1]; 3 mg/kg oral administration): some effect
- Hind Paw Licking Times [1, 8]: 63.4 ± 7.2 s
- % Inhibition of hind paw licking time [1, 8]: (18%)
- Hind Paw Licking Times [1, 9]: 10.2 ± 3.9 s
- % Inhibition of hind paw licking time [1, 9]: (0%)
- Hind Paw Licking Times [1, 10]: 25.1 ± 11.6 s
- % Inhibition of hind paw licking time [1, 10]: (54%)
- Hind Paw Licking Times [1, 11]: 56.7 ± 18 s
- % Inhibition of hind paw licking time [1, 11]: (44%)
- Hind Paw Licking Times [1, 12]: 54.7 ± 9.4 s
- % Inhibition of hind paw licking time [1, 12]: (12%)
- Hind Paw Licking Times [1, 13]: 54.7 ± 15.1 s
- % Inhibition of hind paw licking time [1, 13]: (0%)
- Hind Paw Licking Times [1, 14]: 24.7 ± 9.8 s
- % Inhibition of hind paw licking time [1, 14]: (0%)
- analgesic effect ([1]; 10 mg/kg oral administration, 10-20 minutes period): significant analgesic effect
- Hind Paw Licking Times [1, 15]: 64.3 ± 7.3 s
- % Inhibition of hind paw licking time [1, 15]: (16%)
- Hind Paw Licking Times [1, 16]: 0 ± 0 s
- % Inhibition of hind paw licking time [1, 16]: (100%)
- % Inhibition of hind paw licking time ([1]; 10 mg/kg oral, interval 10-15 minutes): (96%)
- % Inhibition of hind paw licking time ([1]; 10 mg/kg oral, interval 15-20 minutes): (69%)
- Hind Paw Licking Times [1, 17]: 37.5 ± 13.6 s
- % Inhibition of hind paw licking time [1, 17]: (40%)
- Hind Paw Licking Times [1, 18]: 29.9 ± 12.7 s
- % Inhibition of hind paw licking time [1, 18]: (0%)
- Hind Paw Licking Times [1, 19]: 12.8 ± 8.8 s
- % Inhibition of hind paw licking time [1, 19]: (10%)
- activity in an oral animal model of pain ([1]; oral): active
- Ki [2]: 170 nM
- selectivity ratio pα1 [3]: 230
- melting point: 99 °C
- Ki [4]: 68 nM
- concentration of saturated solution [5]: 2000 µg/mL
- agonist activity at the human 5-HT1a receptor ([6]; in words): full agonist activity
- EC50 ([6]; mean values of 2-8 individual experiments): 0.65 to 1.9 nM and 1.9 nM
- Emax ([6]; read-out: intrinsic activity [% rel. to serotonin]): 103%
- Ki ([7]; means of 2-8 individual experiments each done as triplicate): 3600 nM
- selectivity ratio p5-HT2 ([7]; vs p5-HT1a): 4 900
